Experimental data published in patent US9469617B2, “Molecules having certain pesticidal utilities, and intermediates, compositions, and processes related thereto” (priority 2014, dated 2016).
Where two headings read alike, the source gives them in different places.

Assays:
Type in all cases: in vivo
[1] = tested on: Green Peach Aphid (GPA) (Myzus persicae); assay: Bioassay on Green Peach Aphid (GPA), foliar spray on cabbage seedlings; conditions: 72 h, 200 ppm foliar spray on cabbage seedlings, graded after three days, Abbott corrected % control, read-out: GPA % Control (or Mortality) rating
Experimental: Certain molecules disclosed in this document were tested against GPA using procedures described in the following example. In the reporting of the results, the “GPA & YFM Rating Table” was used (See Table Section).
Cabbage seedlings grown in 3-inch pots, with 2-3 small (3-5 cm) true leaves, were used as test substrate. The seedlings were infested with 20-50 GPA (wingless adult and nymph stages) one day prior to chemical application. Four pots with individual seedlings were used for each treatment. Test compounds (2 mg) were dissolved in 2 mL of acetone/MeOH (1:1) solvent, forming stock solutions of 1000 ppm test compound. The stock solutions were diluted 5× with 0.025% Tween 20 in water to obtain the solution at 200 ppm test compound. A hand-held aspirator-type sprayer was used for spraying a solution to both sides of […] leaves until runoff. Reference plants (solvent check) were sprayed with the diluent only containing 20% by volume of acetone/MeOH (1:1) solvent. Treated plants were held in a holding room for three days at approximately 25° C. and ambient relative humidity (RH) prior to grading. Evaluation was conducted by counting the number of live aphids per plant under a microscope. Percent Control was measured by using Abbott's correction formula (W. S. Abbott, “A Method of Computing the Effectiveness of an Insecticide” J. Econ. Entomol. 18 (1925), pp. 265-267) as follows. Corrected % Control=100*(X−Y)/X where X=No. of live aphids on solvent check plants and Y=No. of live aphids on treated plants. The results are indicated in the table entitled “Table ABC: Assay Results” and “Table ABCD: Assay Results” (See Table Section).

[2] = tested on: Yellow Fever Mosquito (YFM) (Aedes aegypti); assay: Bioassay on Yellow Fever Mosquito (YFM) larvae, 96-well plate; conditions: about 1 day-old larvae, master plate 4000 ppm in DMSO diluted, scored on mortality after 3 days
In short: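 Compounds from 4000 ppm DMSO master solutions, diluted in 90:10 water:acetone, dispensed into wells and infested with about 1-day-old larvae in liver-powder water. Held covered at room temperature for 3 days, then each well scored for mortality; 6 replicate plates per master.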

[3] = tested on: Beet Armyworm (BAW) (Spodoptera exigua); assay: Bioassay on Beet Armyworm (BAW), 128-well diet tray assay; conditions: 168 h, 50 μg/cm^2 on artificial diet, second instar larvae, five to seven days, 25° C., read-out: BAW % Control (or Mortality) rating
In short: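 Artificial diet was surface-treated with 50 μg/cm^2 compound in 90:10 acetone-water and dried, then infested with one to five second-instar larvae per well. Trays were held 5–7 days at 25° C, 14:10 light-dark. Percent mortality was averaged over eight wells.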

[4] = tested on: Cabbage Looper (CL) (Trichoplusia ni); assay: Bioassay on Cabbage Looper (CL), 128-well diet tray assay; conditions: 168 h, 50 μg/cm^2 on artificial diet, second instar larvae, five to seven days, 25° C., read-out: CL % Control (or Mortality) rating
In short: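 Second-instar larvae (one to five per well) placed on artificial diet treated with 50 μg/cm^2 compound in 90:10 acetone-water, dried, eight wells per compound. Held at 25 °C, 14:10 light-dark for five to seven days; percent mortality per well, averaged over the eight wells.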

Compound | mortality at 200 ppm ([1]; Table ABCD) [%] | YFM % Control (or Mortality) rating ([2]; Table ABCD) | mortality at 50 µg/cm2 ([3]; Table ABCD) [%] | mortality at 50 µg/cm2 ([4]; Table ABCD) [%] | mortality at 200 ppm ([1]; Table ABC) [%] | YFM % Control (or Mortality) rating ([2]; Table ABC) | mortality at 50 µg/cm2 ([3]; Table ABC) [%] | mortality at 50 µg/cm2 ([4]; Table ABC) [%]
CC(C)(C)OC(=O)NC1Cc2ccc(-c3ncn(-c4ccc(OC(F)(F)F)cc4)n3)cc2C1 (stereo not shown) [C1, tert-butyl (5-(1-(4-(trifluoromethoxy)phenyl)-1H-1,2,4-triazol-3-yl)-2,3-dihydro-1H-inden-2-yl)carbamate] | 0 to 80 | A (80-100) | 50 to 100 | 50 to 100 |  |  |  | 
Cc1ccc(C(C)C)c(N2C(=O)CS/C2=N\C(=O)NC2Cc3ccc(-c4ncn(-c5ccc(OC(F)(F)F)cc5)n4)cc3C2)c1 (stereo not shown) [F2, (Z)-1-(3-(2-isopropyl-5-methylphenyl)-4-oxothiazolidin-2-ylidene)-3-(5-(1-(4-(trifluoromethoxy)phenyl)-1H-1,2,4-triazol-3-yl)-2,3-dihydro-1H-inden-2-yl)urea] |  |  |  |  | 0 to 80 | A (80-100) | 50 to 100 | 50 to 100
O=C(/N=C1\SCC(=O)N1c1ccccc1C1CC1)NC1Cc2ccc(-c3ncn(-c4ccc(OC(F)(F)F)cc4)n3)cc2C1 (stereo not shown) [F15, (Z)-1-(3-(2-Cyclopropylphenyl)-4-oxothiazolidin-2-ylidene)-3-(5-(1-(4-(trifluoromethoxy)phenyl)-1H-1,2,4-triazol-3-yl)-2,3-dihydro-1H-inden-2-yl)urea] |  |  |  |  | 0 to 80 | A (80-100) | 50 to 100 | 50 to 100
Cc1ccc(C(C)C)c(N2C(=O)CS/C2=N\C(=O)NC2Cc3ccc(-c4ncn(-c5ccc(OC(F)(F)C(F)(F)F)cc5)n4)cc3C2)c1 (stereo not shown) [F4, (Z)-1-(3-(2-Isopropyl-5-methylphenyl)-4-oxothiazolidin-2-ylidene)-3-(5-(1-(4-(perfluoroethoxy)phenyl)-1H-1,2,4-triazol-3-yl)-2,3-dihydro-1H-inden-2-yl)urea] |  |  |  |  | 0 to 80 | A (80-100) | 50 to 100 | 50 to 100
CC1S/C(=N\C(=O)NC2Cc3ccc(-c4ncn(-c5ccc(OC(F)(F)F)cc5)n4)cc3C2)N(c2ccccc2C(C)C)C1=O (stereo not shown) [FA2, (Z)-1-(3-(2-isopropylphenyl)-5-methyl-4-oxothiazolidin-2-ylidene)-3-(5-(1-(4-(trifluoromethoxy)phenyl)-1H-1,2,4-triazol-3-yl)-2,3-dihydro-1H-inden-2-yl)urea] |  |  |  |  | 0 to 80 | A (80-100) | 50 to 100 | 50 to 100
CCc1ccccc1N1C(=O)CS/C1=N\C(=O)NC1Cc2ccc(-c3ncn(-c4ccc(OC(F)(F)F)cc4)n3)cc2C1 (stereo not shown) [F12, (Z)-1-(3-(2-Ethylphenyl)-4-oxothiazolidin-2-ylidene)-3-(5-(1-(4-(trifluoromethoxy)phenyl)-1H-1,2,4-triazol-3-yl)-2,3-dihydro-1H-inden-2-yl)urea] |  |  |  |  | 0 | A (80-100) | 50 to 100 | 50 to 100
CCCc1ccc(C)cc1N1C(=O)CS/C1=N\C(=O)NC1Cc2ccc(-c3ncn(-c4ccc(OC(F)(F)F)cc4)n3)cc2C1 (stereo not shown) [F13, (Z)-1-(3-(5-Methyl-2-propylphenyl)-4-oxothiazolidin-2-ylidene)-3-(5-(1-(4-(trifluoromethoxy)phenyl)-1H-1,2,4-triazol-3-yl)-2,3-dihydro-1H-inden-2-yl)urea] |  |  |  |  | 0 to 80 | A (80-100) | 50 to 100 | 50 to 100
